Experimental data published in ChEMBL document CHEMBL1201862, “PubChem BioAssay data set” (2004).
Active and inactive are the calls of the source. Cut-off read from the data, not from the text of the source: actives have a measured IC50 and inactives only a lower limit.

Biological target: Envelope glycoprotein gp160 (Human immunodeficiency virus 1, UniProt Q6QLK5)
Assay: inhibitors of HIV fusion peptide binding, primary screen, biochemical, uHTS, fluorescence dequenching (AID 1986)

Sequence of Envelope glycoprotein gp160 (Q6QLK5 whole entry, the tested form may be a part): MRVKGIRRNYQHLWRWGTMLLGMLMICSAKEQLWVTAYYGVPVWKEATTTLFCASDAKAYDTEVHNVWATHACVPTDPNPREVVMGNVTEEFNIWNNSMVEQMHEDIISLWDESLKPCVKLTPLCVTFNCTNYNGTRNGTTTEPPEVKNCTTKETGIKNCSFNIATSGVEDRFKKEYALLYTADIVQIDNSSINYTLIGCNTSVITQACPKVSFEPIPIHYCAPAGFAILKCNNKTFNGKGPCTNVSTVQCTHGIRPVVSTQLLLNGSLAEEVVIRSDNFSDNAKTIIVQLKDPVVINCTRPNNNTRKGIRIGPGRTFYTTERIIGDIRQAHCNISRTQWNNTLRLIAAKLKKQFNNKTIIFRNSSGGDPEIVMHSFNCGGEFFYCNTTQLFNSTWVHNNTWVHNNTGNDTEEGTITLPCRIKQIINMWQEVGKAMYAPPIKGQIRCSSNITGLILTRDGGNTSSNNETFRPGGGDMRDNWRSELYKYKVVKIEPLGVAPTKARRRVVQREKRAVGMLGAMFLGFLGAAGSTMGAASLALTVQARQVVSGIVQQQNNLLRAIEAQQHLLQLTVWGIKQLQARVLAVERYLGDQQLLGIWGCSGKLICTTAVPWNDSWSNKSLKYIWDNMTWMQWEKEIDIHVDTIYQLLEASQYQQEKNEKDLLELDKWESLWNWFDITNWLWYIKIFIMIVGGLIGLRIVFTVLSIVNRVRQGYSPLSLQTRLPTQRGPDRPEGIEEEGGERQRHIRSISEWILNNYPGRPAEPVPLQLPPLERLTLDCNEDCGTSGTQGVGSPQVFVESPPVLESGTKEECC

O=C(O)c1cccc(N/N=C/c2cc(Br)cc(Br)c2O)c1
IC50: 17.1 µM (active)

Cc1ccc(-c2nc(SCC(=O)Nc3ccccc3OC(F)F)c3c(C)c(C(=O)O)sc3n2)cc1
IC50: 15.1 µM (active)

C=CC#CC[N+]1(CC#Cc2ccccc2)CCOCC1
IC50: 22.5 µM (active)
